Measured values from patent US11273154B2, “Azole compounds as ubiquitin-specific protease USP7 inhibitors” (PROGENRA, INC., priority 2017, dated 2022).

What was measured:
Assay type in all cases: cell-based
USP7 = biological target: T1, USP7 (Homo sapiens, UniProt Q93009); assay: DUB activity of USP7 immunoprecipitated from pulse-treated Jurkat cells (Ub-EKL assay); conditions: Jurkat cells pulse treated with 10 μM-0.1 μM for 2 hours, FIG. 4A-4B
T1 construct: followed by DUB activity measurement of immunoprecipitated USP7; endogenous in cells; host or cells: Jurkat cells
T1 sequence (Q93009 whole entry): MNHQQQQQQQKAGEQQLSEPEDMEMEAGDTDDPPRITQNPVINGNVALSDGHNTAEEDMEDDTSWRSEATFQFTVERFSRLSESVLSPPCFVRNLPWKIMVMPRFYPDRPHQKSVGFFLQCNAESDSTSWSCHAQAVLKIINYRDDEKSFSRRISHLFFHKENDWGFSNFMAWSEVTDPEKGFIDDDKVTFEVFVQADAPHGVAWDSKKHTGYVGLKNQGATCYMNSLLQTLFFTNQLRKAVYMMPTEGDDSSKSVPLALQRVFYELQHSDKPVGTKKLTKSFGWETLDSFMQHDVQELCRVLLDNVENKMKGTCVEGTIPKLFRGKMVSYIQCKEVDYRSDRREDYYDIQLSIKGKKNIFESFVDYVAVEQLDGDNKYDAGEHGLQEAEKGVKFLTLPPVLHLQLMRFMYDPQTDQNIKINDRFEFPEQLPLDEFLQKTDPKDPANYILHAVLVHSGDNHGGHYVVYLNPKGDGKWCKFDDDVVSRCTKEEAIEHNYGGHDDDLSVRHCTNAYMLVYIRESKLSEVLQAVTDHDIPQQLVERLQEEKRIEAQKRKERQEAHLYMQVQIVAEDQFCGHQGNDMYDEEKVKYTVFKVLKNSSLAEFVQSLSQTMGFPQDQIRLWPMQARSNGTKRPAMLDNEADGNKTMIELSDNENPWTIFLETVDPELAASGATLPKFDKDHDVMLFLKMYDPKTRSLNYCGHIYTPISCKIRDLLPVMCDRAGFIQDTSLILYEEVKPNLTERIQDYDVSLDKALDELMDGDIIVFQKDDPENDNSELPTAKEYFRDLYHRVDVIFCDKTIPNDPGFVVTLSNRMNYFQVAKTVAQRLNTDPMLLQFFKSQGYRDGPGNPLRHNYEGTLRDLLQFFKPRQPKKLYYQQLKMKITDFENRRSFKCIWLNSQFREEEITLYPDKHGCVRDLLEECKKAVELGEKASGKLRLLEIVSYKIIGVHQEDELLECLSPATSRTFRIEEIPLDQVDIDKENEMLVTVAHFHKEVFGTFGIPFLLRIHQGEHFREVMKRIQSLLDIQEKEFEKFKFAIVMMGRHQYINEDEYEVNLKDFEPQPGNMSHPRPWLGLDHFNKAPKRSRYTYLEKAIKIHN
Protocol: Jurkat cells were pulse treated with doses ranging from 10 μM-0.1 μM of compound 1 or DMSO as vehicle control for 2 hours followed by DUB activity measurement of immunoprecipitated USP7 (FIG. 4A) as well as total cell lysate (FIG. 4B) using Ub-EKL assay (U.S. Pat. No. 8,680,139). A portion of the immunoprecipitated USP7 is separated on 10% SDS-PAGE and immunoblotted with anti-USP7 antibody to detect the level of USP7 protein (shown at the top of graphs in FIG. 4A).

Murine Tregs = assay: Treg suppression assay with CFSE labeled T effector cells (FACS); conditions: Murine Tregs pre-treated for 2 hours, washed, incubated with CFSE labeled T effector cells for 3 days; FIG. 6
Protocol: Murine Tregs were pre-treated with compound 1 for 2 hours, washed and incubated with carboxyfluorescein succinimidyl ester (CFSE) labeled T effector cells at varying concentrations for 3 days. T effector cell proliferation was monitored using FACS analysis. Percentage proliferation is plotted using Graphpad prism.

DNMT1, UHRF1 and HDM2 = assay: Immunoblot of USP7 oncogenic substrate levels in Jurkat cells; conditions: 20 μg total cell lysate, FIG. 5
Protocol: FIG. 5 graphically illustrates a decrease in USP7 oncogenic substrates DNMT1, UHRF1 and HDM2 levels in Jurkat cells treated with the USP7i compound 1. 20 μg total cell lysates from each sample was separated on 10% SDS-PAGE and immunoblotted with antibodies against DNMT1, UHRF1, HDM2 and Actin (loading control).

Compound: O=C(Nc1ccc2c(c1)S(=O)(=O)C=C2)c1nnc(Sc2c(Cl)cncc2Cl)s1 [compound 1, 5-((3,5-dichloropyridin-4-yl)thio)-N-(1,1-dioxido-2,3-benzo[b]thiophen-6-yl)-1,3,4-thiadiazole-2-carboxamide]
- mode of USP7 inhibition (DUB activity of immunoprecipitated USP7 after pulse treatment) (USP7): irreversible inhibitors
- Treg functions (T effector cell proliferation) (Murine Tregs): inhibition of Treg functions
- USP7 oncogenic substrates DNMT1, UHRF1 and HDM2 levels (DNMT1, UHRF1 and HDM2): decrease
